Values of other authors as cited in patent US20240366505A1, “Liquid Resin Extended-Release Oral Naltrexone Formulation for Treating Autism-Related Disorders” (AARDVARK THERAPEUTICS, INC., priority 2022, published 2024).
Read-outs that look alike come from different tables or passages of the source.

Key:
[1] = 6-β-naltrexol; 50 mg REVIA tablets once daily for 7 days
[2] = single 50 mg REVIA tablet
autistic behavior = conditions: 0.5, 1.0 and 2.0 mg/kg immediate release oral
children with ASD = conditions: 1.0 mg/kg single daily immediate release oral dose, 12 or 14 days
ASD children = conditions: 20 mg immediate release per day for 4 weeks
[3] = in vivo
[4] = 50 mg once daily

Row | SMILES | AUC(0-τ) [1] [ng·h/mL] | Cmax [1] [ng/mL] | AUC(0-inf) ([2]; 6-β-naltrexol, mean (CV%)) [ng·h/mL] | Cmax ([2]; 6-β-naltrexol, mean (CV%)) [ng/mL] | Tmax ([2]; 6-β-naltrexol, mean (CV%)) [h] | accumulation (after 100 mg daily doses) | excretion of parent drug and metabolites by the kidney (human, in vivo) | dose absorbed from the gastrointestinal tract (human, in vivo, po) | urinary excretion of unchanged naltrexone (immediate release formulations) | dose proportionality of AUC and Cmax (over the range of 50-200 mg) | effect on autistic behavior and gaze aversion (autistic behavior) | changes in parent measures (CGI, Conners IHF, SE-Restlessness) and Teacher CGI (children with ASD) | CGI ratings of the teachers (ASD children) | behavior ratings completed by the teachers (Aberrant Behavior Checklist (ABC) scores) (ASD children) | incidence of difficulty sleeping, anxiety, nervousness, abdominal pain/cramps, nausea and/or vomiting, low energy, joint/muscle pain, headache [3] | incidence of loss of appetite, diarrhea, constipation, thirstiness, increased energy, feeling down, irritability, dizziness, skin rash, delayed ejaculation, erectile dysfunction, chills [3] | Tmax ([2]; naltrexone, Mean (CV %)) [h] | rate of early discontinuation of treatment versus placebo [4] | adverse effects versus placebo ([4]; weeks 1, 5 and 8)
1 | Oc1ccc2c3c1O[C@H]1[C@H](O)CC[C@@]4(O)[C@@H](C2)N(CC2CC2)CC[C@]314 [6-β-naltrexol] | 788 ± 134.8 | 96.1 ± 21.05 | 717.3 | 85.6 | 1.05 | – | – | – | – | – | – | – | – | – | – | – | – | – | –
2 | O=C1CC[C@@]2(O)[C@H]3Cc4ccc(O)c5c4[C@@]2(CCN3CC2CC2)[C@H]1O5 [naltrexone, 17-(cyclopropylmethyl)-4,5α-epoxy-3,14-dihydroxy-morphinan-6-one] | – | – | – | – | – | do not accumulate | 53-79 % of the dose | approximately 96% | less than 2 % of an oral dose | dose-proportional | reverse autistic behavior and gaze aversion | achieved statistical significance | Significant difference | significant changes | Greater than 10% | Less than 10% | 1.07 | greater rate | significantly more adverse effects
